Legend:
Assay in all cases: DHFR Inhibition Assay
[1] = target: Dihydrofolate reductase type 1 from Tn4003 (Staphylococcus aureus, UniProt P13955)
[2] = target: T1, Dihydrofolate reductase (Staphylococcus aureus, UniProt Q4H3Y3)
T1 sequence (Q4H3Y3 whole entry): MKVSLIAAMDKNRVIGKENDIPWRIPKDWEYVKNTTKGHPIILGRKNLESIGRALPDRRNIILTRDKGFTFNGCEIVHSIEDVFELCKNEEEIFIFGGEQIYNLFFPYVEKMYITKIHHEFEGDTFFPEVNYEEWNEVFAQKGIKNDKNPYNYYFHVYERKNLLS

[3] = target: T2, Dihydrofolate reductase (Staphylococcus aureus, UniProt C7C2U7)
T2 sequence (C7C2U7 whole entry): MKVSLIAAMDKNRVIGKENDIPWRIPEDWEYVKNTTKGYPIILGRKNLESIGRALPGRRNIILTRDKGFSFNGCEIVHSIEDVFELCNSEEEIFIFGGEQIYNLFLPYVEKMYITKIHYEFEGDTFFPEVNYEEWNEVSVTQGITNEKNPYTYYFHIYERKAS

[4] = target: Dihydrofolate reductase (Staphylococcus aureus, UniProt P0A017)
Dihydrofolate reductase (Staphylococcus aureus, UniProt P0A017), sequence (P0A017 whole entry): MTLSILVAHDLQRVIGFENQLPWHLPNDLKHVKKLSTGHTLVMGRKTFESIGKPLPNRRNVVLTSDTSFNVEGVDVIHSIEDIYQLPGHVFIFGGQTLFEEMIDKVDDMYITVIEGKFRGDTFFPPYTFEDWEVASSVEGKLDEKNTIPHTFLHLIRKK

Dihydrofolate reductase type 1 from Tn4003, sequence (P13955 whole entry): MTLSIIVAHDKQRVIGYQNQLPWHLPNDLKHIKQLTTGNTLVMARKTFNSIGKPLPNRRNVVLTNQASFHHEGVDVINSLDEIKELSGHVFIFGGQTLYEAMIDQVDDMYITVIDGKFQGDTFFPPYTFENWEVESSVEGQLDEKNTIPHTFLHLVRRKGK

SMILES | IC50 [1] [nM] | IC50 [2] [nM] | IC50 [3] [nM] | IC50 [4] [nM]
CCc1nc(N)nc(N)c1C#C[C@@H](C)c1cc2c(c(-c3ccc(C(=O)O)cc3)c1)OCO2 [UCP1205] | 340 | 159 | 100 | 18
CCc1nc(N)nc(N)c1C#C[C@H](C)c1cc(OC)cc(-c2ccc(C(=O)O)cc2)c1 [UCP1173] | 270 |  |  | 
CCc1nc(N)nc(N)c1C#C[C@@H](C)c1cc(-c2ccc(C(=O)O)cc2)ccc1OC [UCP1164] | 8800 |  |  | 
CCc1nc(N)nc(N)c1C#CCc1cc(OC)cc(-c2ccc(C(=O)O)cc2)c1 [UCP1175] | 980 | 1400 | 170 | 
CCc1nc(N)nc(N)c1C#CC(C)c1cc2c(c(-c3ccc(C(=O)O)cc3)c1)OCO2 (stereo unspecified) [UCP1191] | 320 | 87 | 41 | 10
CCc1nc(N)nc(N)c1C#C[C@@H](C)c1cc(OC)cc(-c2ccc(C(=O)O)cc2)c1 [UCP1172] | 410 |  |  | 
CCc1nc(N)nc(N)c1C#C[C@H](C)c1cc2c(c(-c3ccc(C(=O)O)cc3)c1)OCO2 [UCP1206] | 180 | 190 | 54 | 17
CCc1nc(N)nc(N)c1C#CCc1cc(OC)c(OC)c(-c2ccncc2)c1 [UCP1039] | 360 | 450 | 22 | 

From BindingDB's records for doi:10.1016/j.chembiol.2016.11.007 (University of Connecticut, 2016)
